Drawing on the supplement of paper PMC10307832, this text covers relative viability for one cell line.

Holding throughout (experiment): relative viability (nuclei count vs DMSO), 5 days (fraction); higher = more cells survive
Compound in the assay “Tanzisertib + Linsitinib”: O[C@H]1CC[C@H](Nc2ncc3nc(Nc4c(F)cc(F)cc4F)n([C@H]4CCOC4)c3n2)CC1 [Tanzisertib] + C[C@]1(O)C[C@@H](c2nc(-c3ccc4ccc(-c5ccccc5)nc4c3)c3c(N)nccn32)C1 [Linsitinib] (partner 1 µM)
In outline:
(§1)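 The day after seeding in 1536-well plates, lung cancer cell lines were treated by pin tool with a single drug, or with a fixed anchor-drug dose together with five library-drug doses (not always all listed) in √10 steps. After 5 days, a combined fix-and-stain solution (final 0.05% Triton X-100, 1% formaldehyde, 1 ug/ml Hoechst) was added. Nuclei counted on 4× images gave relative viability as treated counts over vehicle counts, reported as the median of duplicate plates.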

Compound in assay [1]: C1CNCCC1C2=CC(=NN2)C3=CC=NC=C3 + Cc1nc(NC(=O)N2CCC[C@H]2C(N)=O)sc1-c1ccnc(C(C)(C)C(F)(F)F)c1 [Alpelisib] (partner 2 µM)
In outline:
as §1

Compound in assay [2]: C1CNCCC1C2=CC(=NN2)C3=CC=NC=C3 + Nc1nc2[nH]cc(CCc3ccc(C(=O)N[C@@H](CCC(=O)O)C(=O)O)cc3)c2c(=O)[nH]1 [Pemetrexed] (partner 0.2 µM)
Put shortly:
as §1

Compound in the assay “Tanzisertib + Pictilisib”: O[C@H]1CC[C@H](Nc2ncc3nc(Nc4c(F)cc(F)cc4F)n([C@H]4CCOC4)c3n2)CC1 [Tanzisertib] + CS(=O)(=O)N1CCN(Cc2cc3nc(-c4cccc5[nH]ncc45)nc(N4CCOCC4)c3s2)CC1 [Pictilisib] (partner 1 µM)
Put shortly:
as §1

For UMC-11, the relative viability with Tanzisertib + Linsitinib (first compound 0.08 µM) was determined as 1; with Tanzisertib + Linsitinib (first compound 0.253 µM), 0.954; with Tanzisertib + Linsitinib (first compound 0.8 µM) it was 1.03; in the assay with Tanzisertib + Linsitinib (first compound 2.53 µM) it was 0.988; in the assay with Tanzisertib + Linsitinib (first compound 8 µM), 1.06; in assay [1] (first compound 0.08 µM), 0.815. The relative viability is 1.22 in assay [1] (first compound 0.8 µM); 0.911 in assay [1] (first compound 2.53 µM); 1.03 in assay [1] (first compound 8 µM); 0.653 in assay [2] (first compound 0.08 µM); 0.9 in assay [2] (first compound 0.8 µM); 0.874 in assay [2] (first compound 2.53 µM). For the same cell line, the relative viability in assay [2] (first compound 8 µM) came to 0.811; with Tanzisertib + Pictilisib (first compound 0.08 µM), 0.874; in the assay with Tanzisertib + Pictilisib (first compound 0.253 µM), 0.85; with Tanzisertib + Pictilisib (first compound 0.8 µM), 0.909; with Tanzisertib + Pictilisib (first compound 2.53 µM), 0.798; with Tanzisertib + Pictilisib (first compound 8 µM), 0.711.
